Experiments:
[1] = Reducing activity with the stable radical DPPH
Procedure: The chalcones were studied for the antioxidant activity (reducing activity RA%) by the use of the stable free radical 2,2-diphenyl-1-picrylhydrazyl radical (DPPH) at concentrations 0.05 mM after 20 and 60 min (Table 2). In this procedure, the dominant chemical reaction involved is the reduction of the DPPH radical by single electron transfer from the antioxidant. […] For the sake of comparison, we measured the RA% values for the intermediate double ethers d which were included in the Table 2.
To a solution of DPPH (final concentration 0.05 mM) in absolute ethanol an equal volume of the compounds solution in DMSO (stock solution 10 mM) dissolved in ethanol was added. Absolute ethanol was used as a control. The concentrations of the solutions of the compounds were 0.05 and 0.1 mM. The absorbance was recorded at 517 nm at room temperature after 20 and 60 min [29] (Table 2).

[2] = ABTS•+ decolorization assay
Procedure: The decolorization assay is used to evaluate the antioxidant activity. The ABTS^•+ cationic radical is derived from the direct oxidation of ABTS by potassium persulfate. No involvement of an intermediary radical is observed. The addition of electron-donating antioxidants reduce ABTS^•+.
Stock solutions of the tested compounds in DMSO (10 mM) were diluted. […] aliquots of each sample were added into the ABTS·^+ solution and the absorbance was recorded at room temperature. Trolox was used as a standard.

[3] = Inhibition of linoleic acid lipid peroxidation (AAPH)
Text: The water soluble 2,2′-azobis(2-amidinopropane) hydrochloride (AAPH) generates in vitro free radicals through spontaneous thermal decomposition. […] Overall, chalcones a, b, and c present anti-lipid peroxidation activity. […] The inhibiting activities for the rest b chalcones ranged from 15–44%. The intermediate ethers are moderate inhibitors. […] This might be correlated with the presence of the double C=C–COCH3 group. […] Both have a long ether chain in their structure.
In an aqueous solution spectrophotometrically at 234 nm the production of conjugated diene hydro peroxide by oxidation of sodium linoleate was monitored and recorded according to our previous published experimental conditions, using 10 µL of the 16 mM sodium linoleate solution added to the UV cuvette containing 930 μL of 0.05 M phosphate buffer, pH 7.4 pre-thermostated at 37 °C, under air by the addition of 50 μL of 40 mM AAPH solution, which was used as a free radical initiator. Ten microliters (10 μL) of the appropriate solutions of the tested compounds were added in the mixture, whereas same level of DMSO was used as a blank for the measurement of lipid oxidation. The rate of oxidation at 37 °C was monitored by recording the increase in absorption at 234 nm caused by conjugated diene hydro peroxides.

[4] = target: T1, soybean lipoxygenase (Glycine max, UniProt P08170); assay: biochemical; format: biochemical; settings: soybean LOX
T1 sequence (P08170 1-839): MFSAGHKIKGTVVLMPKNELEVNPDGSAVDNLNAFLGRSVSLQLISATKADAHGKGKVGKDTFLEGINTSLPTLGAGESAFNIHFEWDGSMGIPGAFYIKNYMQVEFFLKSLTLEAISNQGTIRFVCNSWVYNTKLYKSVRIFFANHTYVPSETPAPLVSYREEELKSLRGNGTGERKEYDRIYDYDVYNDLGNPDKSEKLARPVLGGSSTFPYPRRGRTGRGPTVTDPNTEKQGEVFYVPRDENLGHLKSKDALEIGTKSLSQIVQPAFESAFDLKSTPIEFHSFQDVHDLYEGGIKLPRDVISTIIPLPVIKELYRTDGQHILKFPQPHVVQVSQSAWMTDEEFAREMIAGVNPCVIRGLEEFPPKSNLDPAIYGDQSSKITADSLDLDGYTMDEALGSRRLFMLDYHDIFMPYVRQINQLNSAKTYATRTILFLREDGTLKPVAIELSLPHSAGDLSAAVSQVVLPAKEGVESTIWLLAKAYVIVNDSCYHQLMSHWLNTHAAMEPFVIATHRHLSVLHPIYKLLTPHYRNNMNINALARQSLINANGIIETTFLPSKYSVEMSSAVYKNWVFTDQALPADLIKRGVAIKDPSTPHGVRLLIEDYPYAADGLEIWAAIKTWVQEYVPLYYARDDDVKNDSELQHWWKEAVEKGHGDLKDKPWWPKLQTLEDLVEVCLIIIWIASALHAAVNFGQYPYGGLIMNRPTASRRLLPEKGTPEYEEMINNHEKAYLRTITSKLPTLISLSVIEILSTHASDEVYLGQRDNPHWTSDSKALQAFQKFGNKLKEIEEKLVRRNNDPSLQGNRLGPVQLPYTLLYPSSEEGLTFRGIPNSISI
Text: In our experiments we used soybean lipoxygenase. Designing agents to modulate activities of the variety of so closely homologous enzymes, such as different LOXs, require an intimate knowledge of their 3D structures, as well as information about metabolism of the potential xenobiotics. […] Due to lack of sufficiently-purified human enzymes most of the research has been done on soybean LOX [52, 53]. Although this enzyme is not identical to the mammalian one, it seems that there is a sufficient qualitative correlation between values for enzyme inhibition with the two enzymes.
In vitro study was evaluated as reported previously. The tested compounds as stock solutions were dissolved in DMSO. Ten microliters (10 μL) were incubated at room temperature with sodium linoleate ([…]) and 0.2 mL of enzyme solution (1/9 × 10^−4 w/v in saline) in buffer pH 9 (tris) at room temperature (final volume 1 mL). […] Several concentrations were used for the determination of IC50 values.

[5] = Lipophilicity as RM values by RP-TLC; format: physicochemical; parameters: key: RM = log[(1/Rf) − 1]; settings: methanol/water 70/30, SD < 10%
Text: It is well-documented and discussed in the literature that lipophilicity is a very significant physicochemical property which may critically affect distribution, bioavailability, metabolic activity and elimination, all the useful characteristics for the kinetics of biologically active compounds. Thus, we attempted to determine experimentally the lipophilicity of the synthesized compounds from the RPTLC method as RM values. The method is considered to be a reliable, fast and convenient method for expressing lipophilicity. Moreover, many calculated methods were used in order to predict the logP value.
Reversed phase TLC (RP-TLC) was performed on silica gel plates impregnated with 5% (v/v) liquid paraffin in light petroleum ether. The mobile phase was a methanol/water mixture (70/30, v/v). The plates were developed in closed chromatography tanks saturated with the mobile phase at 24 °C. Spots were detected under UV light. Five individual measurements of Rf values were recorded and used for the determination of RM using the equation RM = log [(1/Rf) − 1]. (Table 3).

[6] = test system: L929 mouse fibroblasts cells; assay: Cytotoxicity, propidium iodide fluorescence method; format: cell-based; settings: 24-h incubation
Procedure: The cytotoxicity of the synthesized derivatives against L929 mouse fibroblasts cells was determined using the propidium iodide (PI) fluorescence method in the presence of different concentrations (1–100 μM) of these compounds. The results are presented in Table 4 in the form of the % cell survival values as PI% for the examined compounds. […] Chalcones c7, c8, c11, and c12 follow.
L929 mouse fibroblasts cells were cultured in EMEM supplemented with 10% horse serum, 2 mM L-glutamine, 1 mM sodium pyruvate, 0.1 mM nonessential amino acids, 1.5 g/L sodium bicarbonate, and 100 μg/mL penicillin–streptomycin at 37 °C in a humidified atmosphere with 5% CO2. L929 cells were plated into 24-well plates at a density […] and allowed to attach and grow for 24 h. The supernatant in each well then replaced with medium containing various concentrations (1, 10, 20, 50 and 100 μM) of compounds a5–12, c5–12, di, and dii–dvi, which presented the more interesting results in the in vitro experiments. After 24-h incubation, the supernatant was removed and the cells were washed with PBS. The cells were detached with 0.25% trypsin, transferred to FACS tubes, and then centrifuged (1600 rpm for 5 min) and the pellet washed with PBS. After washing, the cells in the pellet were incubated with 5 μL propidium iodide (PI) solution (1 mg/mL) for 1 min. The PI fluorescence (cell death) was determined with flow cytometry, FACS Calibur, Coulter Epics XL-MCL (Beckman, Inc., Mount Holly, NJ, USA). The analysis of flow cytometry data was performed with the WinMDI analysis program (Table 4).

Structure (SMILES)	RA% 100 μM 20 min [1]	RA% 100 μM 60 min [1]	ABTS•+ Inhb. % @ 100 μM [2]	AAPH% @ 100 μM (anti-lipid peroxidation) [3]	% LOX Inhb. @ 100 μM [4]	RM [5]	1 μM Average (% pi) ± σ [6]	10 μM Average (% pi) ± σ [6]	20 μM Average (% pi) ± σ [6]	50 μM Average (% pi) ± σ [6]	100 μM Average (% pi) ± σ [6]	IC50 ([4]; read-out: LOX IC50)
O=C(/C=C/c1cccc(Oc2ccccc2)c1)c1ccccc1O [b2, (E)-1-(2-hydroxyphenyl)-3-(3-phenoxyphenyl) prop-2-en-1-one]	45%	15%	No	44%	44%	0.04						
CC(=O)c1ccc(OCCCCCCOc2ccc(C(C)=O)cc2)cc1 [dv, 1,1′-((hexane-1,6-diylbis(oxy))bis(4,1-phenylene))diethanone]			No	18%	7%	−0.53	4.47 ± 0.59%	6.83 ± 2.46%	8.05 ± 3.58%	9.69 ± 0.57%	9.69 ± 0.57%	
CN(C)c1ccc(/C=C/C=C/C(=O)c2ccccc2O)cc1 [b3, (2E,4E)-5-(4-(dimethylamino)phenyl)-1-(2-hydroxyphenyl)penta-2,4-dien-1-one]	72%	15%	96%	100%	100%	−0.66						57 µM
O=C(/C=C/c1ccccc1)c1ccc(O)cc1 [a13, (E)-1-(4-hydroxyphenyl)-3-phenylprop-2-en-1-one]	7%	3%	No	38%	23%	−0.73						
CC(Cc1ccc(O)c(O)c1)C(C)Cc1ccc(O)c(O)c1 (stereo not drawn) [NDGA, Nordihydroguaiaretic acid, reference compound]	81%	83%										
Nc1c2c(nc3ccccc13)CCCC2 [Tacrine, reference compound]			88%									
CN(C)c1ccc(/C=C/C=C/C(=O)c2ccc(OCCCCCCCCOc3ccc(C(=O)/C=C/C=C/c4ccc(N(C)C)cc4)cc3)cc2)cc1 [evii, (2E,2′E,4E,4′E)-1,1′-((octane-1,8-diylbis(oxy))bis(4,1-phenylene))bis(5-(4-(dimethylamino)phenyl)penta-2,4-dien-1-one)]	No	no	88%	6%	12%							
CC(=O)c1ccc(OCCCCCOc2ccc(C(C)=O)cc2)cc1 [div, 1,1′-((pentane-1,5-diylbis(oxy))bis(4,1-phenylene))diethanone]			No	30%	17%	0.23	4.89 ± 0.51%	8.56 ± 3.97%	11.86 ± 2.98%	17.05 ± 1.46%	17.05 ±1.46%	
CC(=O)c1ccc(OCCCCCCCCOc2ccc(C(C)=O)cc2)cc1 [dvii, 1,1′-((octane-1,8-diylbis(oxy))bis-(4,1-phenylene))diethanone]			No	27%	5%	−0.36						
CC(=O)c1ccc(OCCCCOc2ccc(C(C)=O)cc2)cc1 [diii, 1,1′-((butane-1,4-diylbis(oxy))bis(4,1-phenylene))diethanone]			No	29%	41%	−0.37	14.06 ± 1.36%	20 ± 3.12%	20.76 ± 3.51%	32.14 ± 6.99%	32.14 ± 6.99%	
CN(C)c1ccc(/C=C/C=C/C(=O)c2ccc(OCCCCCCOc3ccc(C(=O)/C=C/C=C/c4ccc(N(C)C)cc4)cc3)cc2)cc1 [ev, (2E,2′E,4E,4′E)-1,1′-((hexane-1,6-diylbis(oxy))bis(4,1-phenylene))bis(5-(4-(dimethylamino)phenyl)penta-2,4-dien-1-one)]	No	no	25%	14%	7%							

Source: article PMC6337391 (Molecules, 2019)
